Results on 32 molecules are retold here after patent publication US9029377B2, “Platelet-activating factor receptor antagonists” (Merck Sharp & Dohme Corp., priority 2009, dated 2015).

Each structure is given as a SMILES string.

The target in the experiment is PAFR (Homo sapiens, UniProt P25105). Kind of experiment: PAF Binding Assay (PAFR binding).
Chain of PAFR (P25105 whole entry): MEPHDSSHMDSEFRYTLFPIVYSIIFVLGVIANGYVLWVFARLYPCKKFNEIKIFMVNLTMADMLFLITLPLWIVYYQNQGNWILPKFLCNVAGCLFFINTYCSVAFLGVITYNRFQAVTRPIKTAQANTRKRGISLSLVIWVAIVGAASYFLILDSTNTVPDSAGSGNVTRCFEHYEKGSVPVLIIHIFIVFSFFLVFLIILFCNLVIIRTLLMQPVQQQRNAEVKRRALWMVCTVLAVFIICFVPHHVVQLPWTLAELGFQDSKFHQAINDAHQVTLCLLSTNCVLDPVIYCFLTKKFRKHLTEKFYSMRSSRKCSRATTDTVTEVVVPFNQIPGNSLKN
The IC50 is the point on the concentration scale where inhibition reaches its midpoint. The low end stands for greater potency, the high end for weaker potency. Take `Cc1nncn1[C@@H]1CCC[C@H](NS(=O)(=O)c2ccc(-c3ccc(OCC(F)(F)F)nc3)c(F)c2)C1` [Compound 2Ff, 3-fluoro-N-[(1S,3R)-3-(3-methyl-4H-1,2,4-triazol-4-yl)cyclohexyl]-4-[6-(2,2,2-trifluoroethoxy)pyridin-3-yl]benzenesulfonamide]: the half-maximal inhibitory concentration (IC50) was found to be 1 nM.

As to `Cc1nncn1[C@@H]1CCC[C@H](NS(=O)(=O)c2ccc(-c3cnc(Cl)c(F)c3)c(F)c2)C1` [Compound 2Fg, 4-(6-chloro-5-fluoropyridin-3-yl)-3-fluoro-N-[(1S,3R)-3-(3-methyl-4H-1,2,4-triazol-4-yl)cyclohexyl]benzenesulfonamide], the IC50 came to 36 nM.

As for `Cc1nncn1[C@@H]1CCC[C@H](NS(=O)(=O)c2ccc(-c3noc(C4CC4)n3)c(F)c2)C1` [Compound 2Fh, 4-(5-cyclopropyl-1,2,4-oxadiazol-3-yl)-3-fluoro-N-[(1S,3R)-3-(3-methyl-4H-1,2,4-triazol-4-yl)cyclohexyl]benzenesulfonamide], the IC50 is 9.9 nM.

Molecule `Cc1nncn1[C@@H]1CCC[C@H](NS(=O)(=O)c2ccc(OCCCCF)c(F)c2)C1` [Compound 2Fi, 3-fluoro-4-(4-fluorobutoxy)-N-[(1S,3R)-3-(3-methyl-4H-1,2,4-triazol-4-yl)cyclohexyl]benzenesulfonamide] registered an IC50 of 9.7 nM.

In the case of `CCCCOc1ccc(S(=O)(=O)N[C@H]2CCC[C@@H](n3cnnc3C)C2)cc1F` [Compound 2Fj, 4-butoxy-3-fluoro-N-[(1S,3R)-3-(3-methyl-4H-1,2,4-triazol-4-yl)cyclohexyl]benzenesulfonamide], the IC50 was found to be 1.9 nM.

Molecule `O=S(=O)(N[C@@H]1C[C@H](n2cnnc2)CC(F)(F)C1)c1ccc(-c2ccc(OC(F)(F)F)cc2)c(F)c1` [Compound 2Ga, N-[(1R,5S)-3,3-difluoro-5-(4H-1,2,4-triazol-4-yl)cyclohexyl]-2-fluoro-4′-(trifluoromethoxy)biphenyl-4-sulfonamide] came in with an IC50 of 10 nM.

As to `CC(C)Oc1ccc(-c2ccc(S(=O)(=O)N[C@@H]3C[C@H](n4cnnc4)CC(F)(F)C3)cc2F)cc1` [Compound 2Gd, N-[(1R,5S)-3,3-difluoro-5-(4H-1,2,4-triazol-4-yl)cyclohexyl]-2-fluoro-4′-isopropoxybiphenyl-4-sulfonamide], the IC50 turned out to be 7.2 nM.

`Cc1nncn1[C@H]1C[C@@H](NS(=O)(=O)c2ccc(-c3ccc(OC(F)(F)F)cc3)c(F)c2)CC(F)(F)C1` [Compound 2Ha, N-[(1R,5S)-3,3-difluoro-5-(3-methyl-4H-1,2,4-triazol-4-yl)cyclohexyl]-2-fluoro-4′-(trifluoromethoxy)biphenyl-4-sulfonamide] gave an IC50 of 1.4 nM.

`Cc1nncn1[C@H]1C[C@@H](NS(=O)(=O)c2ccc(-c3ccc(OCC(F)(F)F)nc3)c(F)c2)CC(F)(F)C1` [Compound 2Hf, N-[(1R,5S)-3,3-difluoro-5-(3-methyl-4H-1,2,4-triazol-4-yl)cyclohexyl]-3-fluoro-4-[6-(2,2,2-trifluoroethoxy)pyridin-3-yl]benzenesulfonamide] came in with an IC50 of 0.6 nM.

In the case of `Cc1nncn1[C@H]1C[C@@H](NS(=O)(=O)c2ccc(OCCCCF)c(F)c2)CC(F)(F)C1` [Compound 2Hi, N-[(1R,5S)-3,3-difluoro-5-(3-methyl-4H-1,2,4-triazol-4-yl)cyclohexyl]-3-fluoro-4-(4-fluorobutoxy)benzenesulfonamide], the IC50 was determined as 6.8 nM.

Regarding `CCCCOc1ccc(S(=O)(=O)N[C@@H]2C[C@H](n3cnnc3C)CC(F)(F)C2)cc1F` [Compound 2Hj, 4-butoxy-N-[(1R,5S)-3,3-difluoro-5-(3-methyl-4H-1,2,4-triazol-4-yl)cyclohexyl]-3-fluorobenzenesulfonamide], the half-inhibitory concentration (IC50) was determined as 3.6 nM.

`O=S(=O)(N[C@H]1CCC[C@@H](n2cnnc2)C1)c1ccc(-c2ccc(OC(F)(F)F)cc2)cc1F` [Compound 2Ig, 3-fluoro-N-[(1S,3R)-3-(4H-1,2,4-triazol-4-yl)cyclohexyl]-4′-(trifluoromethoxy)biphenyl-4-sulfonamide] gave a half-inhibitory concentration (IC50) of 16 nM.

In turn, `O=S(=O)(N[C@H]1CCC[C@@H](n2cnnc2)C1)c1ccc(-c2ccc(OCC(F)(F)F)nc2)cc1F` [Compound 2Ih, 2-fluoro-N-[(1S,3R)-3-(4H-1,2,4-triazol-4-yl)cyclohexyl]-4-[6-(2,2,2-trifluoroethoxy)pyridin-3-yl]benzenesulfonamide] displayed an IC50 of 4 nM.

The molecule `Cc1nncn1[C@@H]1CCC[C@H](NS(=O)(=O)c2ccc(-c3noc(C4CC4)n3)cc2F)C1` [Compound 2Ja, 4-(5-cyclopropyl-1,2,4-oxadiazol-3-yl)-2-fluoro-N-[(1S,3R)-3-(3-methyl-4H-1,2,4-triazol-4-yl)cyclohexyl]benzenesulfonamide] had an IC50 of 22 nM.

With `Cc1nncn1[C@@H]1CCC[C@H](NS(=O)(=O)c2ccc(-c3ccc(OC(F)(F)F)cc3)cc2F)C1` [Compound 2Jg, 3-fluoro-N-[(1S,3R)-3-(3-methyl-4H-1,2,4-triazol-4-yl)cyclohexyl]-4′-(trifluoromethoxy)biphenyl-4-sulfonamide], the IC50 was 10 nM.

Turning to `Cc1nncn1[C@@H]1CCC[C@H](NS(=O)(=O)c2ccc(-c3ccc(OCC(F)(F)F)nc3)cc2F)C1` [Compound 2Jh, 2-fluoro-N-[(1S,3R)-3-(3-methyl-4H-1,2,4-triazol-4-yl)cyclohexyl]-4-[6-(2,2,2-trifluoroethoxy)pyridin-3-yl]benzenesulfonamide], the 50% inhibitory concentration (IC50) was determined as 3.4 nM.

Take `CCCCOc1ccc(S(=O)(=O)N[C@H]2CCC[C@@H](n3cnnc3C)C2)c(F)c1` [Compound 2Ji, 4-butoxy-2-fluoro-N-[(1S,3R)-3-(3-methyl-4H-1,2,4-triazol-4-yl)cyclohexyl]benzenesulfonamide]: the IC50 came out at 4 nM.

For `O=S(=O)(N[C@H]1CCC[C@@H](n2cnnc2)C1)c1ccc(-c2noc(C3CC3)n2)cc1C1CC1` [Compound 2Ka, 2-cyclopropyl-4-(5-cyclopropyl-1,2,4-oxadiazol-3-yl)-N-[(1S,3R)-3-(4H-1,2,4-triazol-4-yl)cyclohexyl]benzenesulfonamide], the IC50 amounted to 2.7 nM.

In turn, `CC(F)(F)c1nc(-c2ccc(S(=O)(=O)N[C@H]3CCC[C@@H](n4cnnc4)C3)c(C3CC3)c2)no1` [Compound 2Kc, 2-cyclopropyl-4-[5-(1,1-difluoroethyl)-1,2,4-oxadiazol-3-yl]-N-[(1S,3R)-3-(4H-1,2,4-triazol-4-yl)cyclohexyl]benzenesulfonamide] displayed an IC50 of 9.9 nM.

For `O=S(=O)(N[C@H]1CCC[C@@H](n2cnnc2)C1)c1ccc(-c2noc(C3(O)CC3)n2)cc1C1CC1` [Compound 2Ke, 2-cyclopropyl-4-[5-(1-hydroxycyclopropyl)-1,2,4-oxadiazol-3-yl]-N-[(1S,3R)-3-(4H-1,2,4-triazol-4-yl)cyclohexyl]benzenesulfonamide], the IC50 amounted to 337 nM.

Take `O=S(=O)(N[C@H]1CCC[C@@H](n2cnnc2)C1)c1ccc(-c2noc(C3CCC3)n2)cc1C1CC1` [Compound 2Kf, 4-(5-cyclobutyl-1,2,4-oxadiazol-3-yl)-2-cyclopropyl-N-[(1S,3R)-3-(4H-1,2,4-triazol-4-yl)cyclohexyl]benzenesulfonamide]: the IC50 worked out at 2.8 nM.

In turn, `Cc1nncn1[C@H]1C[C@@H](NS(=O)(=O)c2ccc(-c3noc(C4CC4)n3)cc2C2CC2)CC(F)(F)C1` [Compound 2Lj, 2-cyclopropyl-4-(5-cyclopropyl-1,2,4-oxadiazol-3-yl)-N-[(1R,5S)-3,3-difluoro-5-(3-methyl-4H-1,2,4-triazol-4-yl)cyclohexyl]benzenesulfonamide] came in with an IC50 of 1.3 nM.

Take `O=S(=O)(N[C@H]1CCC[C@@H](n2cnnc2)C1)c1cc(F)cc(F)c1` [Compound 2Ma, 3,5-difluoro-N-[(1S,3R)-3-(4H-1,2,4-triazol-4-yl)cyclohexyl]benzenesulfonamide]: the IC50 was determined as 2900 nM.

Turning to `CCOc1ccc(S(=O)(=O)N[C@H]2CCC[C@@H](n3cnnc3)C2)cc1` [Compound 2Maa, 4-ethoxy-N-[(1S,3R)-3-(4H-1,2,4-triazol-4-yl)cyclohexyl]benzenesulfonamide], the IC50 is 39 nM.

`O=S(=O)(N[C@H]1CCC[C@@H](n2cnnc2)C1)c1ccc(Oc2ncc(C(F)(F)F)cc2Cl)cc1` [Compound 2Mab, 4-{[3-chloro-5-(trifluoromethyl)pyridin-2-yl]oxy}-N-[(1S,3R)-3-(4H-1,2,4-triazol-4-yl)cyclohexyl]benzenesulfonamide] came in with a 50% inhibitory concentration (IC50) of 66 nM.

With `O=S(=O)(N[C@H]1CCC[C@@H](n2cnnc2)C1)c1ccc(OCCCC(F)(F)F)cc1` [Compound 2Mac, N-[(1S,3R)-3-(4H-1,2,4-triazol-4-yl)cyclohexyl]-4-(4,4,4-trifluorobutoxy)benzenesulfonamide], the IC50 was 8.3 nM.

In turn, `CCCCCc1ccc(S(=O)(=O)N[C@H]2CCC[C@@H](n3cnnc3)C2)cc1` [Compound 2Mah, 4-pentyl-N-[(1S,3R)-3-(4H-1,2,4-triazol-4-yl)cyclohexyl]benzenesulfonamide] registered an IC50 of 13 nM.

`O=S(=O)(N[C@H]1CCC[C@@H](n2cnnc2)C1)c1cccc(OC(F)(F)F)c1` [Compound 2Mc, N-[(1S,3R)-3-(4H-1,2,4-triazol-4-yl)cyclohexyl]-3-(trifluoromethoxy)benzenesulfonamide] gave an IC50 of 410 nM.

The molecule `O=S(=O)(N[C@H]1CCC[C@@H](n2cnnc2)C1)c1cccc(OC(F)F)c1` [Compound 2Md, 3-(difluoromethoxy)-N-[(1S,3R)-3-(4H-1,2,4-triazol-4-yl)cyclohexyl]benzenesulfonamide] showed an IC50 of 323 nM.

`Cc1cc(C)cc(S(=O)(=O)N[C@H]2CCC[C@@H](n3cnnc3)C2)c1` [Compound 2Me, 3,5-dimethyl-N-[(1S,3R)-3-(4H-1,2,4-triazol-4-yl)cyclohexyl]benzenesulfonamide] had an IC50 of 194 nM.

In turn, `CC(C)(C)c1cccc(S(=O)(=O)N[C@H]2CCC[C@@H](n3cnnc3)C2)c1` [Compound 2Mf, 3-tert-butyl-N-[(1S,3R)-3-(4H-1,2,4-triazol-4-yl)cyclohexyl]benzenesulfonamide] returned an IC50 of 157 nM.

Consider `O=S(=O)(N[C@H]1CCC[C@@H](n2cnnc2)C1)c1cccc(-c2ccccc2)c1` [Compound 2Mg, N-[(1S,3R)-3-(4H-1,2,4-triazol-4-yl)cyclohexyl]biphenyl-3-sulfonamide], for which the IC50 came to 30 nM.
